The source of these data is patent US20230265068A1, “TRANSIENT RECEPTOR POTENTIAL CANONICAL 3 INHIBITORS AND METHODS OF USE THEREOF” (University of Tennessee Research Foundation, priority 2020, published 2023).

In one data set the target is T1, hTRPC7 (Homo sapiens, UniProt Q9HCX4).
T1 construct: expressed in transfected cells; host or cells: HEK293, transient transfection, pMO vector
T1 sequence (Q9HCX4 1-862): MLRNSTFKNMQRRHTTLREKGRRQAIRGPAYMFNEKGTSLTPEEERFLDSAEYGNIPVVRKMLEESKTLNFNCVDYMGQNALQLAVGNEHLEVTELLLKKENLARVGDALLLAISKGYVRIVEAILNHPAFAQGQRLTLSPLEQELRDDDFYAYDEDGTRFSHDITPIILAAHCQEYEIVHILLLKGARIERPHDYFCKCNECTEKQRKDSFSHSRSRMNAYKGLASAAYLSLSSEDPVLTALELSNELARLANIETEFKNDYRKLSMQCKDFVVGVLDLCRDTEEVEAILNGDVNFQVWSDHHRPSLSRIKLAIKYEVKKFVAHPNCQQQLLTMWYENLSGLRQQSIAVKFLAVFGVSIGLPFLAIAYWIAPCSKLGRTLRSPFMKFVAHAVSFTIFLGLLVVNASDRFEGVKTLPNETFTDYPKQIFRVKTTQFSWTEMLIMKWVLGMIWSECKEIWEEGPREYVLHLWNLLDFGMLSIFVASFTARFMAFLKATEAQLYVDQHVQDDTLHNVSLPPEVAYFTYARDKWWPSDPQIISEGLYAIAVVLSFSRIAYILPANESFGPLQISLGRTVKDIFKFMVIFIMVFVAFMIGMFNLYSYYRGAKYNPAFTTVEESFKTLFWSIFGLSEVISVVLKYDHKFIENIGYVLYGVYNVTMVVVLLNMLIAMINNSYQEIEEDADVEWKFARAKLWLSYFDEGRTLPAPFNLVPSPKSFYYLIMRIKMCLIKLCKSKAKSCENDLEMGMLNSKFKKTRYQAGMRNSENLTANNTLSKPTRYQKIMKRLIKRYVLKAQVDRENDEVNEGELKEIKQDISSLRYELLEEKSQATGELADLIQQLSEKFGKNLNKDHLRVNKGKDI
Briefly: whole-cell patch clamp selectivity, HEK 293 cells overexpressing hTRPC7. Type of data set: cell-based. The note with it: HEK293, with agonist, solutions without Ca2+, read-out: % of the current of hTRPC7 inhibited. Here is the method: Human embryonic kidney 293 (HEK293; catalog number CRL-1573) cells were cultured in Dulbecco's modified Eagle's medium (Invitrogen) supplemented with 10% fetal bovine serum and 1% penicillin-streptomycin at 37° C. and 5% CO2. Constructs cloned in pMO (a pcDNA3-modified vector) were co-transfected with GFP-pMO, using Lipofectamine 2000 (Invitrogen) according to the manufacturer's instructions. Macroscopic currents in the whole-cell patch clamp configuration were recorded 18-24 h post-transfection. The extracellular solution contained 140 mM NaCl, 6 mM KCl, 2 mM MgCl2, 10 mM HEPES, and 10 mM glucose (pH 7.4). Pipettes were made of borosilicate glass (outer diameter, 1.5 mm; inner diameter, 1.10 mm; Sutter Instruments) and fire-polished with a resistance between 2.8 and 4.0 megaohms when filled with an intracellular solution that contained 140 mM CsCl, 5 mM EGTA, and 10 mM HEPES, pH 7.2. Currents were recorded with a Multiclamp 700B amplifier (Molecular Devices) using a 1-s ramp from −100 to 100 mV. […] Data were acquired with a sampling rate of 20 kHz, low-pass filtered (10 kHz), and analyzed offline using Clampfit v10.4.2.0 (Molecular Devices). […]
(Patch clamp records ionic current or voltage across a cell membrane.)

The next data set relates to hippocampal neurons. In words: neuroprotection against Aβ-containing conditioned medium (7PA2) in primary hippocampal neurons. It is filed as cell-based, rat. Conditions: 14 DIV neurons, 7PA2 medium, 16 hours, different concentrations. How it is done:
To visualize dendritic spines, 14 DIV hippocampal neurons at low density (5,000 cells per 35 mm dish) were exposed to 7PA2 conditioned media (CM), which contains naturally secreted Aβ, or CHO control media or for 16 h, with or without cotreatment with the two inhibitor compounds, followed by immunocytochemistry with MAP2 and DAPI counterstaining.
To explore the potential biological effects of compound 22 in a TRPC3 related disease model, its neuroprotective ability in primary cultured neurons (14 DIV prepared from E17 rats as described) was evaluated. The effects on neuron dendritic morphology were measured by imaging. Mature hippocampal neurons (DIV=14) were treated with CHO control medium, or naturally secreted Aβ-containing conditioned medium (7PA2), or in combination with compound 22 or Pyr3 at different concentrations, for 16 hours, followed by immunocytochemistry using an antibody against MAP2 and DAPI (data not shown). […] Hippocampal neurons (DIV=14) were treated with compound 22 or Pyr3 alone at different concentrations, followed by immunocytochemistry staining with MAP2 and DAPI (data not shown).

A short description of data set [1]: brain permeability and half-life after systemic administration in C57BL/6 mice. Type of data set: in vivo. How it is done:
The brain permeability of compound 22 was evaluated with systemic administration (20 mg/kg, i.v.) in C57BL/6 mice. Blood samples were collected at nine time points after compound administration: 5 min, 15 min, 30 min, 1 hr, 2 hr, 4 hr, 8 hr, 16 hr, and 24 hr. Brain homogenates were then extracted and analyzed for concentrations of compound 22 by liquid chromatography-mass spectrometry (LC-MS). The half-life (T½) in the brain was calculated by GraphPad Prism software.

As for `CCNC(=O)c1cnn(-c2ccc(-n3ccc(Cl)c(Cl)c3=O)cc2)c1C(F)(F)F` [Compound 22], the inhibition at 10 µM on hTRPC7 is approximately 22%. In addition, the “protection against Aβ-induced damage to dendrites (MAP2/DAPI)” value with hippocampal neurons is on record as “protect against Aβ-induced damage to dendrites”. For the same molecule, in data set [1] (C57BL/6, mouse, brain/plasma, iv, 20 mg/kg, i.v., 1 h after injection, read-out: brain-to-plasma ratio), the Kp at 1 h was approximately 0.15. The half-life in data set [1] (C57BL/6, mouse, plasma, iv, 20 mg/kg, i.v., read-out: plasma T½ (converted)) is approximately 4 h. Further, the “duration of brain concentration above TRPC3 IC50” value in data set [1] (one-dose injection) was 18 to 20 h.
